# Source: ChEMBL document CHEMBL5252524, “Therapeutic progress in amyotrophic lateral sclerosis-beginning to learning” (2016)
# Assays:
# Format in all cases: functional
# Mus musculus [1] = species: Mus musculus; test: Anti-apoptotic activity against ALS mouse model assessed as animal survival relative to control
# Mus musculus [2] = species: Mus musculus; test: Anti-oxidative activity against ALS mouse model assessed as animal survival relative to control
# Mus musculus [3] = species: Mus musculus; test: Anti-inflammatory activity against ALS mouse model assessed as animal survival relative to control
# Mus musculus [4] = species: Mus musculus; test: Anti-inflammatory activity against ALS B6SJLF1/J mouse model assessed as animal survival relative to control
# Mus musculus [5] = species: Mus musculus; test: Anti-inflammatory activity against ALS transgenic mouse model harbouring human G93A SOD1 (B6SJL-TgN(SOD1-G93A)1Gur mutant assessed as survival relative to control
# Mus musculus [6] = species: Mus musculus; test: Effect on mitochondrial protection in ALS mouse model assessed as survival relative to control
# Mus musculus [7] = species: Mus musculus; test: Anti-oxidative activity against ALS transgenic mouse model harbouring human G93A SOD1 (B6SJL-TgN(SOD1-G93A)1Gur mutant assessed as survival relative to control
# Mus musculus [8] = species: Mus musculus; test: Anti-inflammatory activity against ALS mouse model harbouring human G93A SOD1 mutant assessed as survival relative to control
# Mus musculus [9] = species: Mus musculus; test: Anti-excitotoxic activity against ALS transgenic mouse model harbouring human G93A SOD1 (B6SJL-TgN(SOD1-G93A)1Gur mutant assessed as survival relative to control
# Mus musculus [10] = species: Mus musculus; test: Anti-excitotoxic activity against ALS mouse model assessed as animal survival relative to control
# [11] = target: Superoxide dismutase [Cu-Zn] (Homo sapiens) (UniProt P00441); test: Effect on human SOD1 protein homeostasis in ALS mouse model assessed as survival relative to control
# Sequence of Superoxide dismutase [Cu-Zn] (Homo sapiens) (P00441 whole entry): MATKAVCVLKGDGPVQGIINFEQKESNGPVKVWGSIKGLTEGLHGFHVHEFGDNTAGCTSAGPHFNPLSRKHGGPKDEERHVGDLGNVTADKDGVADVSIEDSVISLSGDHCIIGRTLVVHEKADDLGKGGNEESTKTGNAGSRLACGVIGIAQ
# Mus musculus [12] = species: Mus musculus; test: Anti-apoptotic activity against ALS mouse model expressing human G93A SOD1 mutant assessed as survival relative to control
smiles,measurement,setting,value
O=C([O-])CCCc1ccccc1.[Na+] [SODIUM PHENYLBUTYRATE],Survival,Mus musculus [1],22%
C#CCN(C)Cc1ccc(O)c2ncccc12,Survival,Mus musculus [2],6%
Cc1ccc(-c2cc(C(F)(F)F)nn2-c2ccc(S(N)(=O)=O)cc2)cc1 [CELECOXIB],Survival,Mus musculus [3],25%
CN(C)c1ccc(O)c2c1C[C@H]1C[C@H]3[C@H](N(C)C)C(O)=C(C(N)=O)C(=O)[C@@]3(O)C(O)=C1C2=O [MINOCYCLINE],Survival,Mus musculus [1],6%
CCc1ccc(CCOc2ccc(CC3SC(=O)NC3=O)cc2)nc1 (centres undefined) [PIOGLITAZONE],Survival,Mus musculus [4],8%
CC1=C(O)C(=O)C=C2C1=CC=C1[C@@]2(C)CC[C@@]2(C)[C@@H]3C[C@](C)(C(=O)O)CC[C@]3(C)CC[C@]12C [CELASTROL],Survival,Mus musculus [5],9%
CC(C)CCC[C@@H](C)[C@H]1CC[C@H]2[C@@H]3CCC4=CC(=NO)CC[C@]4(C)[C@H]3CC[C@]12C [OLESOXIME],Survival,Mus musculus [6],10%
CN(CC(=O)O)C(=N)N.O,Survival,Mus musculus [6],15%
O=C1CCC(N2C(=O)c3ccccc3C2=O)C(=O)N1 (centres undefined) [THALIDOMIDE],Survival,Mus musculus [3],12%
CC(=O)N[C@@H](CS)C(=O)O [ACETYLCYSTEINE],Survival,Mus musculus [7],7%
CN1CCCCC1Cn1cc(C(=O)c2cc([N+](=O)[O-])ccc2I)c2ccccc21 (centres undefined),Survival,Mus musculus [8],10%
CC12CC3CC(C)(C1)CC(N)(C3)C2 [MEMANTINE],Survival,Mus musculus [9],5%
Nc1nc2ccc(OC(F)(F)F)cc2s1 [RILUZOLE],Survival,Mus musculus [10],10%
Nc1cccc2c1CN(C1CCC(=O)NC1=O)C2=O (centres undefined) [LENALIDOMIDE],Survival,Mus musculus [5],18%
COC1=C(OC)C(=O)C(CCCCCCCCCC[P+](c2ccccc2)(c2ccccc2)c2ccccc2)=C(C)C1=O.CS(=O)(=O)[O-] [MITOQUINONE MESYLATE],Survival,Mus musculus [7],4%
[O-][n+]1cccc(/C(Cl)=N/OC[C@H](O)CN2CCCCC2)c1,Survival,[11],9%
CO/N=C(\C(=O)N[C@@H]1C(=O)N2C(C(=O)O)=C(CSc3nc(=O)c(O)nn3C)CS[C@H]12)c1csc(N)n1 [CEFTRIAXONE],Survival,Mus musculus [9],8%
COc1ccc2[nH]cc(CCNC(C)=O)c2c1 [MELATONIN],Survival,Mus musculus [12],7%
O=C([O-])[O-].[Li+].[Li+],Survival,[11],36%
